Measured values published in US7326721B2 (Hypnion, Inc., priority 2003, dated 2008).
Where “and” joins values, the source holds several entries; their conditions need not be identical. Equal values may be shown once. Read-outs that look alike come from different tables or passages of the source.

Legend:
Wistar rats = assay: Acetic acid-induced abdominal spasm test in the rat; type: in vivo; details: oral 100 mg/kg
Description: (§1) The objective of this example was to determine the analgesic activity of HY-2901 (Also referred to herein as Compound 49a) following oral administration. Analgesic activity was assessed abdominal spasm test in the rat and mouse. Analgesic activity is also assessed using the tail clip test in the mouse, tail flick test in the rat, Randall-Selitto test in the rat and comparisons are made with a vehicle control group. Reference compounds ASA (acetylsalicylic acid) and morphine are also included for comparison.
(§2) The tail clip and tail flick test provide useful information about the central analgesic activity of the test article. The Randall-Selitto test provides information on the compound's ability to modify a hyperalgesic state and the abdominal spasm test provides information on the peripheral analgesic activity of the test article. The test article is administered by oral gavage, this being the intended clinical route of administration. The dose levels employed are expected to encompass the efficacy dose and provide an adequate safety margin.
(§3) All formulations were prepared on each day of dosing. The test article (HY-2901) was formulated in 0.25% (w/v) MC at the highest concentration required. Lower doses were obtained by serial dilution of the highest concentration using 0.25% (w/v) MC. The reference compound, acetylsalicylic acid, was formulated in 0.25% (w/v) MC at the required concentrations. Brewer's yeast was formulated in water for injection at the required concentration. Acetic acid was diluted with water for injection to provide the required concentration for administration.
(§4) An adequate number of male Crl:CD-I(ICR)BR mice and Wistar rats were obtained from Charles River (UK) Ltd., Margate, Kent. The mice were approximately 4 weeks of age and weigh between 18 and 22 g on arrival. The rats were approximately 5 weeks of age and weigh between 150 and 170 g on arrival. The age and weight of the animals at the start of the study was documented in the raw data and final report,
Each animal received a single administration of vehicle, test article or reference compound by oral gavage, using a constant dose volume […]. Individual dose volumes were based on individual body weights obtained on the day of dosing.
Forty-five minutes following oral administration each animal received a 1 mL intraperitoneal injection of 1% acetic acid. Animals were immediately placed into individual observation chambers and the number of abdominal spasms elicited over the subsequent 25-minute period was recorded.

Crl:CD-I(ICR)BR mice = assay: Acetic acid-induced abdominal spasm test in the mouse; type: in vivo
Description: as §1, §2, §3, §4
Each animal received a single administration of vehicle, test article or reference compound by oral gavage, using a constant dose volume 10 mL/kg. Individual dose volumes were based on individual body weights obtained on the day of dosing.
Forty-five minutes following oral administration each animal received a 0.25 mL intraperitoneal injection of 0.5% acetic acid. Animals were immediately placed into individual observation chambers and the number of abdominal spasms elicited over the subsequent 25-minute period was recorded.

adult male Wistar rats = assay: SCORE-2000 sleep-wakefulness, locomotor activity and body temperature monitoring; type: in vivo, rat
male Wistar rats = type: in vivo
Description: The Irwin screen can provide useful information on potential side effects of compounds on general physiological and behavioural functions. The screen was conducted by administering the test compounds orally in 0.25% aqueous methylcellulose using male Wistar rats, a frequently used species in such studies and for which background data are readily available.
The Irwin screen tests for numerous parameters in animals that have been administered the test compound. For example, the screen can include: in-cage effects, e.g., dispersion, respiratory rate, locomotor activity, restlessness, fighting, alertness, apathy, and exophthalmus; in-arena effects, e.g., transfer arousal, spatial locomotion, ptosis, startle, tail elevation, piloerection, touch escape, positional passivity, catalepsy, tighting reflex, visual placing, grip strength, pinna, corneal, pain response, and wire manoeuvre; parameters observed in handling, e.g., cyanosis, cutaneous blood flow, hypothermia, body tone, pupil size, light-pupil response, lacrimation, grooming, red staining, salivation, and provoked biting; general scores e.g., fearfulness, irritability, abnormal gait, abnormal body carriage, tremors, twitches, convulsions, bizarre behaviour, writhing, vocalisation, diarrhoea, number of defaecations, number of urinations, moribund, lethality, and abnormalities detected. Further details can be found in Irwin, S; Comprehensive observational assessment: I a. A systematic, quantitative procedure for assessing the behavioural and physiological state of the mouse.
Irwin screening of the disclosed sleep-inducing agents was performed by Covance (Princeton, N.J.) according to Irwin, above; Covance Standard Operating Procedure (current revision of SOP PHARM 8.10); relevant regulatory authority guidelines ICH (International Committee for Harmonization) Guideline (Topic S7A; CPMP/ICH/539/00) on Safety Pharmacology Studies for human pharmaceuticals (November 2000); and all procedures carried out on live animals were subject to the provisions of United Kingdom Law, in particular the Animals (Scientific Procedures) Act, 1986. which obliges all UK laboratories to maintain a local ethical review process to ensure that all animal use in the establishment is carefully considered and justified; that proper account is taken of all possibilities for reduction, refinement or replacement and that high standards of accommodation and care are achieved.
All test compound formulations were prepared on the day of dosing by Covance Harrogate Dispensary. The test compounds were formulated in 0.25% aqueous methylcellulose at the highest concentration required. Lower doses were obtained by serial dilution of the highest concentration using 0.25% aqueous methylcellulose. Dose levels are expressed in terms of the amount of test compound administered without regard to purity or active content. All formulations were stored at room temperature (nominally 10 to 30° C.) in sealed containers and protected from light.
An adequate number of male Wistar (Crl:WI(Glx/BRL/Han) BR:WH) rats were obtained from Charles River Ltd. (Margate, Kent, United Kingdom). The rats were approximately 5 weeks of age and weighed between 150 and 170 g on arrival. The animals were housed in groups of no more than six in polypropylene cages (33×15×13 cm) or (45×28×20 cm) with solid floors and Grade 10 woodflakes (Datesand Ltd., Cheshire, United Kingdom) as bedding. The cages were cleaned and dried before use. Aspen chew blocks were placed within the cages as a form of environmental enrichment. Routinely, holding rooms were maintained within acceptable limits for temperature and relative humidity (nominally 19 to 25° C. and 40% to 70%, respectively). These rooms were illuminated by fluorescent light for 12 hours out of each 24 hour cycle and designed to receive at least 15 fresh air changes per hour. […]

H1 histamine receptor = molecular target: T1, H1 histamine receptor (Bos taurus, UniProt P30546); assay: Histamine H1 competitive binding assay ([3H]pyrilamine); parameters: species or system bovine
T1 construct: the receptors were obtained from bovine cerebellar membrane tissue; from tissue; host or cells: bovine cerebellar membranes

hERG = hERG (Homo sapiens, UniProt Q12809)
M1 muscarinic receptor [1] = molecular target: T2, M1 muscarinic receptor (Homo sapiens, UniProt P11229); assay: Muscarinic M1 binding assay ([3H]-scopolamine, N-methyl chloride); parameters: purchased PerkinElmer, Inc., Wellesley, Mass; host or cells: CHO cells; details: read-out: Ki M1
T2 sequence (P11229 1-460): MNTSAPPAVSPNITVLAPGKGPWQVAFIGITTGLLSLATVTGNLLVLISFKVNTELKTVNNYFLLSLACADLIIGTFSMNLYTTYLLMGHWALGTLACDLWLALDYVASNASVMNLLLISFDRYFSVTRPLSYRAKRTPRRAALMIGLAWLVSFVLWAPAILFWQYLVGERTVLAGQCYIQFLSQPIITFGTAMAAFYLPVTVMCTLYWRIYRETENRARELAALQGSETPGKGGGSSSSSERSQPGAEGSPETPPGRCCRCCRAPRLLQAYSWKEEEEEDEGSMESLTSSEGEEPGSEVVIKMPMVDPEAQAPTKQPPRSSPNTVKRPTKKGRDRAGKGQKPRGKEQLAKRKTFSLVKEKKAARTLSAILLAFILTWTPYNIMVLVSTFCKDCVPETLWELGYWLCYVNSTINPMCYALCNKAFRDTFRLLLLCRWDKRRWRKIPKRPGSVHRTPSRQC

M2 muscarinic receptor [2] = molecular target: T3, M2 muscarinic receptor (Homo sapiens, UniProt P08172); assay: Muscarinic M2 binding assay; parameters: purchased PerkinElmer, Inc., Wellesley, Mass; host or cells: CHO cells; details: read-out: Ki M2
T3 sequence (P08172 1-466): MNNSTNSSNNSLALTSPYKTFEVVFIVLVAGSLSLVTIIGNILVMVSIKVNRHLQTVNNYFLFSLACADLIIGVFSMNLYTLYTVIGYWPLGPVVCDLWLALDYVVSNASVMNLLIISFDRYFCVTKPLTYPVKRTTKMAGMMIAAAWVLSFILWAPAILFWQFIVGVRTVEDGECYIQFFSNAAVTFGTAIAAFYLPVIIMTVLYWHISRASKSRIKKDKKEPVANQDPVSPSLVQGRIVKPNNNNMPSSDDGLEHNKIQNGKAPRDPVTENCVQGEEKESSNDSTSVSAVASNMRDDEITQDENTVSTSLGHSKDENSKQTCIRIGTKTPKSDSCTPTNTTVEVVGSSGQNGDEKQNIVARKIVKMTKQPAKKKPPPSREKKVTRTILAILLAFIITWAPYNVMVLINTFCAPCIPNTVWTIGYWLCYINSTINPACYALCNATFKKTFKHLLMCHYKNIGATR

M3 muscarinic receptor [3] = molecular target: T4, M3 muscarinic receptor (Homo sapiens, UniProt P20309); assay: Muscarinic M3 binding assay; parameters: purchased PerkinElmer, Inc., Wellesley, Mass; host or cells: CHO cells; details: read-out: Ki M3
M1 muscarinic receptor [4] = molecular target: T2, M1 muscarinic receptor; assay: Muscarinic M1 binding assay ([3H]-scopolamine, N-methyl chloride)
M2 muscarinic receptor [5] = molecular target: T3, M2 muscarinic receptor; assay: Muscarinic M2 binding assay
[6] = molecular target: Adrenergic, Alpha 1, Non-selective; assay: Table 12 panel: Adrenergic, Alpha 1; type: binding; details: read-out: α1 binding
[7] = molecular target: Adrenergic, Alpha 2, Non-selective; assay: Table 12 panel: Adrenergic, Alpha 2; type: binding; details: read-out: α2 binding
human H1 receptor = human H1 receptor (Homo sapiens, UniProt P35367); assay: H1(hR) binding (Table 28)
Description: (§5) The comparative data is shown in Table 28, unless otherwise noted, binding was measured with the bovine receptors, H1(hR) is the human H1 receptor, 5HT2a (h) is the human 5HT2a receptor. Binding numbers are presented in nM values.

human 5HT2a receptor = human 5HT2a receptor (Homo sapiens, UniProt P28223); assay: 5HT2a (h) binding (Table 28)
Dopamine, D1 = Dopamine, D1 (UniProt P21728); assay: Dopamine, D1 (human recombinant) binding assay
[8] = molecular target: Dopamine, D1 (human recombinant) (UniProt P14416); assay: Dopamine D2 binding assay (printed as D1 in b555)
Description: In vitro binding assays are used to determine H1 binding (i.e., primary target binding) and M1, M2 and M3 binding (i.e., off target binding). […] Similar assays are performed with H1 and dopamine receptors (D1 and D2), and with H1 and adrenergic receptors (α1 and α2).
Dopamine, D1 (human recombinant) binding assay was performed according to published procedures. See, e.g., Jarvie, et al. J. Recept Res., 13(1–4): 573–90 (1993); and Gundlach, et al. Life Sciences, 35(19): 1981–8 (1984) with modifications

5HT2a (rat) = 5HT2a (rat) (Rattus norvegicus, UniProt P14842); assay: 5HT2a (rat) binding (Table 28)
Description: as §5

M3 muscarinic receptor [9] = molecular target: T4, M3 muscarinic receptor; assay: Muscarinic M3 binding assay
[10] = bovine receptor, read-out: H1 binding

T4 sequence (P20309 whole entry): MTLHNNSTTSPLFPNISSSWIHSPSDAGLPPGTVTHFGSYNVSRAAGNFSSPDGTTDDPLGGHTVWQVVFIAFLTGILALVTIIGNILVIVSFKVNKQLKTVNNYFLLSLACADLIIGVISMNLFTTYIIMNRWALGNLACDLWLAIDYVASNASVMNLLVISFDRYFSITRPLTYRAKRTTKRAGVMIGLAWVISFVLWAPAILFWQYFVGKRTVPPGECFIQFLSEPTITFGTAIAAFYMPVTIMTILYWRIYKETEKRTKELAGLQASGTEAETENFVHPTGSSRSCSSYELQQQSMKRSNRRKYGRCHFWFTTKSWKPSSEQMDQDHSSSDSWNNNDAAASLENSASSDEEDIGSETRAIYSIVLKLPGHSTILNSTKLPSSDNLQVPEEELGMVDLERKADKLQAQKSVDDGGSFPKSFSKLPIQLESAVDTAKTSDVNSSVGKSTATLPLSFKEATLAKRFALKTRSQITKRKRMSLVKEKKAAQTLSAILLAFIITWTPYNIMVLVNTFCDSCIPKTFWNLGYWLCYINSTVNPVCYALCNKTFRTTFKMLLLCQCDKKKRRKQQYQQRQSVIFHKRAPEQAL
T1 sequence (P30546 whole entry): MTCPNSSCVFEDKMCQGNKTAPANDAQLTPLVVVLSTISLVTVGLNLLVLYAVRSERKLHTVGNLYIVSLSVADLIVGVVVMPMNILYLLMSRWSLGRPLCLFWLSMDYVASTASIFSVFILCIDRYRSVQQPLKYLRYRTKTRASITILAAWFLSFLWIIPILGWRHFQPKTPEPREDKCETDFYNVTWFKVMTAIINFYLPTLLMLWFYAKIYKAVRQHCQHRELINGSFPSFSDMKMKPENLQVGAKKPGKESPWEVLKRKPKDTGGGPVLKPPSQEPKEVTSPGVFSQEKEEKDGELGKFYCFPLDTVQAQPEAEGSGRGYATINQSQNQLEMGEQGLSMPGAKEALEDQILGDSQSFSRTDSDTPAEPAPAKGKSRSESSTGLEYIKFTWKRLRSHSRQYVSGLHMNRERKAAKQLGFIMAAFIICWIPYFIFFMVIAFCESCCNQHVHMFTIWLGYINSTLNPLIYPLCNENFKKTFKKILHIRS
Chain of hERG (Q12809 whole entry): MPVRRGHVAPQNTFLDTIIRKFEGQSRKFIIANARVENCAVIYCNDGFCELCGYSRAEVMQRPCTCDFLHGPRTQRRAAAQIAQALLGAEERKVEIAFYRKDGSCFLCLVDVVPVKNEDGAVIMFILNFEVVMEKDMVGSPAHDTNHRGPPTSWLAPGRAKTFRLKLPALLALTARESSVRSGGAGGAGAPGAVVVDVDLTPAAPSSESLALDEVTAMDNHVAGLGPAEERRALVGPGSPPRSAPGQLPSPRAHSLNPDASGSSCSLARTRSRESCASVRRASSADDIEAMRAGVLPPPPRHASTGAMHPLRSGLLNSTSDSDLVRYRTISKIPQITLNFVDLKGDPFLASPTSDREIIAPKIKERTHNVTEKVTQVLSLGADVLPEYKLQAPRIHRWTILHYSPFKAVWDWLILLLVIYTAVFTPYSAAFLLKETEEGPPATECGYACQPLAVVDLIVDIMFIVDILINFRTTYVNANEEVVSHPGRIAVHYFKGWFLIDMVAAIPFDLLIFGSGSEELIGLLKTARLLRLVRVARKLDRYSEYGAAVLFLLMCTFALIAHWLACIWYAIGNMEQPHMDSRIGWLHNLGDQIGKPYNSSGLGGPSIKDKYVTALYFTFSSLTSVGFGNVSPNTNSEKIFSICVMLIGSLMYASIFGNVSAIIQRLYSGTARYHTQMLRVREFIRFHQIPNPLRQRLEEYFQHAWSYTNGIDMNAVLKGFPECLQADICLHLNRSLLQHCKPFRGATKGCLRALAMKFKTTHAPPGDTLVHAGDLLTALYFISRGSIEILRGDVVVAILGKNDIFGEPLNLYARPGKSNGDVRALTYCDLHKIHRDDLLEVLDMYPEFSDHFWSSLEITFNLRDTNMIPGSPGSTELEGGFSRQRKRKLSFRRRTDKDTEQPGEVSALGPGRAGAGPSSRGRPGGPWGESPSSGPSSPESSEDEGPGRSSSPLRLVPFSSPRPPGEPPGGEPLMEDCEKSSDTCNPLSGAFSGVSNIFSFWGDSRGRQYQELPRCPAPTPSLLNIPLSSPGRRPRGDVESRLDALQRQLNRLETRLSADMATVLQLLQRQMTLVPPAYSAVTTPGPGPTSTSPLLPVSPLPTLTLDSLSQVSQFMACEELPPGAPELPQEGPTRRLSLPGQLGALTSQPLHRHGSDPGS
Chain of human 5HT2a receptor (P28223 whole entry): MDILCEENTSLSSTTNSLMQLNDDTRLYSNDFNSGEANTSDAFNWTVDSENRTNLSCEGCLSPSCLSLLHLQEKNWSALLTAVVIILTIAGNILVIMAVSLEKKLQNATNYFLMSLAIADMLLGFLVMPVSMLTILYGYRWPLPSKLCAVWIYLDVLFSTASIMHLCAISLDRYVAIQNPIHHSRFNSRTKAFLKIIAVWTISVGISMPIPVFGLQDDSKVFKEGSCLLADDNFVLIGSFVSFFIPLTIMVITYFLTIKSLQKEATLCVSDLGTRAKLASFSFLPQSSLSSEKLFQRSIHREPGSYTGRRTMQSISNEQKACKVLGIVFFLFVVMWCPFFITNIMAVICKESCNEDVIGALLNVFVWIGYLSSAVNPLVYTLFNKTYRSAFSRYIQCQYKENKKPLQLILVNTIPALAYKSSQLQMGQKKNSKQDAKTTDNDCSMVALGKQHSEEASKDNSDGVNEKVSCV
Chain of 5HT2a (rat) (P14842 whole entry): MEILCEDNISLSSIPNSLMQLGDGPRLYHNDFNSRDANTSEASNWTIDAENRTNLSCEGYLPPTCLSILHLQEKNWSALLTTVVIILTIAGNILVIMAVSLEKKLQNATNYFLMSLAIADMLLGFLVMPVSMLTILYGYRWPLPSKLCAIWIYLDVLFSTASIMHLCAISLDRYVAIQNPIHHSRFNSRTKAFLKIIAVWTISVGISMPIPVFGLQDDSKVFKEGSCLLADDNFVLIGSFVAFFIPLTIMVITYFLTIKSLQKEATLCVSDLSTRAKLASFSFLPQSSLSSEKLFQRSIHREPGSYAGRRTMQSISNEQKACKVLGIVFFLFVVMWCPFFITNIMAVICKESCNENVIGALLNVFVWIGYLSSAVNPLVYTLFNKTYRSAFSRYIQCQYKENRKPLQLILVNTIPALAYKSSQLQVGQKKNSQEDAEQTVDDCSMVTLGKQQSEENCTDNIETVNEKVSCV
Chain of human H1 receptor (P35367 whole entry): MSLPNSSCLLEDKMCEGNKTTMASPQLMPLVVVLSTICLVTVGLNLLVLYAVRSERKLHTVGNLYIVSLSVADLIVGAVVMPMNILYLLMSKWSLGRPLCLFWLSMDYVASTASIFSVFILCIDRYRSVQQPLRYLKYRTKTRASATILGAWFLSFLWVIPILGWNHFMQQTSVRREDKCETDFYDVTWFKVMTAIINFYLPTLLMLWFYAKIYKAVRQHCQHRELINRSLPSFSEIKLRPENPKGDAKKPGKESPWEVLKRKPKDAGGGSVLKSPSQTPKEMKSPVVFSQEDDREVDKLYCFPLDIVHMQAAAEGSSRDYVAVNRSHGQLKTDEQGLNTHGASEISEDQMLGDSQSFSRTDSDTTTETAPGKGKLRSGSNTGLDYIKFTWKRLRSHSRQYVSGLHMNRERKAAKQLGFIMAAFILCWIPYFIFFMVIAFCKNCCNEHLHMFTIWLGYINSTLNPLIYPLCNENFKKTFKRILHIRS

Compound | LUSB (adult male Wistar rats; dose 30 mg/kg oral at CT-18) [min] | NREM (adult male Wistar rats; dose 30 mg/kg oral at CT-18) [min] | Irwin at mg/kg dose (male Wistar rats; 30 mg/kg oral) | Irwin at mg/kg dose (male Wistar rats; 100 mg/kg oral) | Irwin at mg/kg dose (male Wistar rats; rat, in vivo) | Ki (H1 histamine receptor; read-out: Ki H1) [nM] | hERG at micromolar (% blocking of the hERG channel) (hERG) [% @ 1] | Ki (M1 muscarinic receptor [1]) [nM] | Ki (M2 muscarinic receptor [2]) [nM] | Ki (M3 muscarinic receptor [3]) [nM] | Ki (H1 histamine receptor; [10]) [nM] | Ki (M1 muscarinic receptor [4]) [nM] | Ki (M2 muscarinic receptor [5]) [nM] | Ki [6] [nM] | Ki [7] [nM] | Ki (human H1 receptor) [nM] | Ki (human 5HT2a receptor) [nM] | Ki (Dopamine, D1) [nM] | Ki (5HT2a (rat)) [nM] | also measured
CC(=O)Oc1ccccc1C(=O)O [ASA, acetylsalicylic acid, reference compound] | – | – | – | – | – | – | – | – | – | – | – | – | – | – | – | – | – | – | – | Group mean (=sd) number pf abdominal spasms recorded in a 25-minute period (Wistar rats): 1 ± 2.3; Number of abdominal spasms recorded in a 25-minute period, individual animal data (Wistar rats; 100 mg/kg): 0 (3×) and 1 (2×) and 6; Group mean (±sd) number of abdominal spasms recorded in a 25 minute period (Crl:CD-I(ICR)BR mice; oral 100 mg/kg): 29 ± 29.9; Number of abdominal spasms recorded in a 25-minute period (Crl:CD-I(ICR)BR mice; oral, 100 mg/kg, individual animal data (animals 25-30)): 17 and 8 and 45 and 82 and 1 and 23
O=C(O)CCCN1CCC(=C2c3ccccc3COc3ccccc32)CC1 [Compound 70e] | 15 | 43.3 | clean | some side effects | 10, 30 clean; 100 some side effects | 136 | 2.7 | > 10000 | > 10000 | > 10000 | – | – | – | – | – | – | – | – | – | LUSB (adult male Wistar rats; dose 3 mg/kg oral at CT-18): 6.6 min; NREM (adult male Wistar rats; dose 3 mg/kg oral at CT-18): 25.7 min; LUSB (adult male Wistar rats; dose 10 mg/kg oral at CT-18): 6.6 min; NREM (adult male Wistar rats; dose 10 mg/kg oral at CT-18): 27.4 min
O=C(O)CN1CCC(=C2c3ccccc3COc3ccccc32)CC1 [Compound 71e] | 4.1 | 34.5 | clean | many side effects | 10, 30 clean; 100 many side effects | 60.7 | 3.6 | 12100 | 5130 | > 10000 | – | – | – | – | – | – | – | – | – | –
COc1ccc2c(c1)COc1ccc(F)cc1C2=C1CCN(CCC(=O)O)CC1 [Compound 10518] | – | – | – | – | – | – | – | – | – | – | 52.3 | > 10000 | > 10000 | 2850 | > 10000 | 35 | 422 | > 10000 | 197 | LUSB 3 mg/kg (adult male Wistar rats; 3 mg/kg): 6.7 ± 2.3; LUSB 10 mg/kg (adult male Wistar rats; 10 mg/kg): 7.9 ± 1.7; NREM cumul. 10 mpk (adult male Wistar rats; 10 mpk): 46 ± 7; Ki [8]: > 10000 nM; HERG (hERG; human, 10 µM, pH 7.4): 3.90%
COc1ccc2c(c1)COc1ccc(F)cc1C2=C1CCN(CC2(C(=O)O)CC2)CC1 [Compound 10519] | – | – | – | – | – | – | – | – | – | – | 19.8 | > 10000 | > 10000 | > 10000 | > 10000 | 34 | 541 | > 10000 | 56 | Ki (M3 muscarinic receptor [9]): > 10000 nM; HERG (hERG): 6.10%
